Laboratory results as given in US8883833B2, “Substituted benzoazole PDE4 inhibitors for treating inflammatory, cardiovascular and CNS disorders” (Decode Genetics EHF, priority 2007, dated 2014).

Assays:
human PDE4B isozyme = human PDE4B isozyme (Homo sapiens, UniProt Q07343); assay: IC50 for human PDE4B isozyme (Table 5); assay type: biochemical; conditions: read-out: IC50 for human PDE4B isozyme, hPDE4B
Description: (§1) In-vitro assay for PDE4 enzymes. The in-vitro activity of PDE4 enzymes and the in-vitro potency of therapeutic agents described in the present invention was measured using a real-time, enzyme-coupled spectrophotometric assay. By using three different coupling enzymes, the product of the PDE4 reaction is coupled to the oxidation of the reduced form β-nicotinamide adenine dinucleotide (NADH), which dissipation can be monitored spectrophotmetrically at […]. Assay description. Buffer A containing 50 mM Tris, pH 8.0, 16 mM MgCl2 and 80 mM KCl is prepared and stored at room temperature. Buffer B containing 50 mM Tris, pH 8.0 is prepared and stored at toom temperature. Stock solutions of the following reagents are prepared in Buffer B and stored at −20° C.: Adenosine-5′-triphosphate (ATP), cyclic adenosine-5′-monophosphate (cAMP), phosphoenolpyruvate (PEP) and NADH. An assay mix is prepared by mixing Buffer A, […] (TCEP), ATP, PEP, NADH, myokinase (MK), pyruvate kinase (PK), lactate dehydroganese (LDH) and PDE4 to a final volume of 20 mL, which is enough for a single 96-well assay plate. Assay mix (180 μL) and test article (10 μL) in 1:1 DMSO/H2O mixture is pre-incubated at room temperature for 10 min. The enzymatic reaction is initiated by addition of cAMP (10 μL). Final concentration of all components in the assay (200 μL/well) are as follows: 10 mM MgCl2, 50 mM KCl, 5 mM TCEP, 2.5% DMSO, 0.4 mM NADH, 1 mM PEP, 0.04 mM ATP, 5 units MK, 1 unit PK, 1 unit LDH and appropriate amount of PDE4. Reaction progress curves are monitored in a plate reader capable of measuring light absorbance at 340 nm. A decrease in light absorbance at 340 nm is due to oxidation of NADH. Positive controls containing no test article and negative controls containing no test article and no cAMP are included on every assay plate. Reaction rates are determined from the slopes of the linear portions of the progress curves. All data is percent normalized with respect to controls and presented as percent inhibition.

human PDE4D isozyme = human PDE4D isozyme (Homo sapiens, UniProt Q08499); assay: IC50 for human PDE4D isozyme (Table 4); assay type: biochemical; conditions: read-out: IC50 for human PDE4D isozyme, hPDE4D
Sequence of human PDE4D isozyme (Q08499 whole entry): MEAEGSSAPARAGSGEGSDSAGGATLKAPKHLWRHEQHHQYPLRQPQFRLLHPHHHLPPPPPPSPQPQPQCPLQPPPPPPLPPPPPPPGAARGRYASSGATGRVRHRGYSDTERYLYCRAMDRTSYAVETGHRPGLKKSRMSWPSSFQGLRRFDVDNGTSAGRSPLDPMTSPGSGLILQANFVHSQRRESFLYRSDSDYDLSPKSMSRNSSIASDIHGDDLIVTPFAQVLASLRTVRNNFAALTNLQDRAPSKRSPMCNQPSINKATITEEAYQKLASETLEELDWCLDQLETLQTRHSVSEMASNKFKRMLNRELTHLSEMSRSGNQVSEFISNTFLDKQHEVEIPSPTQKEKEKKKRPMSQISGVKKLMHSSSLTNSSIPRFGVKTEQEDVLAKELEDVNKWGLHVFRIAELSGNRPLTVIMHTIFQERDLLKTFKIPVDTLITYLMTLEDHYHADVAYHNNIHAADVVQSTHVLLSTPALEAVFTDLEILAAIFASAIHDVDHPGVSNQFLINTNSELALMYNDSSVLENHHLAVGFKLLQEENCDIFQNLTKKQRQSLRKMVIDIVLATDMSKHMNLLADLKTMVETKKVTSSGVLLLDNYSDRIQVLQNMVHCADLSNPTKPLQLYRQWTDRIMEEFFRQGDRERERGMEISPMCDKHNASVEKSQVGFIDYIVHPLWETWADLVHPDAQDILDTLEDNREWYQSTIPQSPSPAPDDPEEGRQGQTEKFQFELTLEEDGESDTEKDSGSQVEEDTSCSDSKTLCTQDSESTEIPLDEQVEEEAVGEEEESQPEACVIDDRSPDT
Description: as §1

Sequence of human PDE4B isozyme (Q07343 whole entry): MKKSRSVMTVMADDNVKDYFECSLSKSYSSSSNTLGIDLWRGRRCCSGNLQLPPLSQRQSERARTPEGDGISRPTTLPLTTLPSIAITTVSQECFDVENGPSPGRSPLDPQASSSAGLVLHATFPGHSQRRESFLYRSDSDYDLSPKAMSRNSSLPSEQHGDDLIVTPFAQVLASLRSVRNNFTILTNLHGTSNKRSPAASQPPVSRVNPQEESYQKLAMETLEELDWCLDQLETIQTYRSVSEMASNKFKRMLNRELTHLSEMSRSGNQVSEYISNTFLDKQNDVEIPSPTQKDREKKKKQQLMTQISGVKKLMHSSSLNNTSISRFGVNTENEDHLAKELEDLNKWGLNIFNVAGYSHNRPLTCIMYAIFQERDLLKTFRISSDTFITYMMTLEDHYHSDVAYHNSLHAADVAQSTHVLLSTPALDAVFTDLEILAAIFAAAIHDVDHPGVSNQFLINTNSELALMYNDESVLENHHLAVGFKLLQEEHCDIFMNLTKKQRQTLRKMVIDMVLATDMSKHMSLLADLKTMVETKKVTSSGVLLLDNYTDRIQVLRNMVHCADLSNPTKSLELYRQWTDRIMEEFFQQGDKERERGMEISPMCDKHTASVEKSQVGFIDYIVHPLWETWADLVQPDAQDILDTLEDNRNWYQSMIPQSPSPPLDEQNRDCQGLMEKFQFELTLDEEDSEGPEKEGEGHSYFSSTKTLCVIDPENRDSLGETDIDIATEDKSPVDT

Nc1nc2c(-c3cccc([N+](=O)[O-])c3)cc(Cc3ccc(F)cc3)cc2s1 [BA-01, 6-(4-fluorobenzyl)-4-(3-nitrophenyl)-benzothiazol-2-yl amine]
IC50 (human PDE4B isozyme): < 5 µM
IC50 (human PDE4D isozyme): < 5 µM

Nc1nc2c(-c3cccc([N+](=O)[O-])c3)cc(Cn3ccnc3)cc2s1 [BA-02, 6-imidazol-1-ylmethyl-4-(3-nitro-phenyl)-benzothiazol-2-ylamine]
IC50 (human PDE4B isozyme): < 5 µM
IC50 (human PDE4D isozyme): < 5 µM

Nc1nc2c(-c3ccc4nonc4c3)cc(Cc3ccc(F)cc3)cc2s1 [BA-03, 4-Benzol[1,2,5]oxadiazol-5-yl-6-(4-fluoro-benzyl)-benzothiazol-2-yl amine]
IC50 (human PDE4B isozyme): < 5 µM
IC50 (human PDE4D isozyme): < 5 µM

Nc1nc2c(-c3ccc4c(c3)OCO4)cc(Cc3ccc(F)cc3)cc2s1 [BA-04, 4-Benzo[1,3]dioxol-5-yl-6-(4-fluoro-benzyl)-benzothiazol-2-ylamine]
IC50 (human PDE4B isozyme): < 5 µM
IC50 (human PDE4D isozyme): < 5 µM

Nc1nc2c(-c3ccc4c(c3)OCO4)cc(C(O)c3ccc(F)cc3)cc2s1 (stereo not drawn) [BA-05, (2-Amino-4-benzo[1,3]dioxol-5-yl-benzothiazol-6-yl)-(4-fluoro-phenyl)-methanol]
IC50 (human PDE4B isozyme): < 5 µM
IC50 (human PDE4D isozyme): < 5 µM

Cn1nccc1C(O)c1cc(-c2ccc3c(c2)OCO3)c2nc(N)sc2c1 (stereo not drawn) [BA-06, (2-Amino-4-benzo[1,3]dioxol-5-yl-benzothiazol-6-yl)-(2-methyl-2H-pyrazol-3-yl)-methanol]
IC50 (human PDE4B isozyme): < 5 µM
IC50 (human PDE4D isozyme): < 5 µM

Nc1nc2c(-c3cccc(C(F)(F)F)c3)cc(Cc3ccc(F)cc3)cc2s1 [BA-07, 6-(4-Fluoro-benzyl)-4-(3-trifluoromethyl-phenyl)-benzothiazol-2-ylamine]
IC50 (human PDE4B isozyme): < 5 µM
IC50 (human PDE4D isozyme): < 5 µM

Cn1nccc1Cc1cc(-c2ccc3c(c2)OCO3)c2nc(N)sc2c1 [BA-08, 4-Benzo[1,3]dioxol-5-yl-6-(2-methyl-2H-pyrazol-3-ylmethyl)-benzothiazol-2-ylamine]
IC50 (human PDE4B isozyme): < 5 µM
IC50 (human PDE4D isozyme): < 5 µM

Nc1nc2c(-c3ccc4c(c3)OCO4)cc(Cn3cccn3)cc2s1 [BA-09, 4-Benzo[1,3]dioxol-5-yl-6-pyrazol-1-ylmethyl-benzothiazol-2-ylamine]
IC50 (human PDE4B isozyme): < 5 µM
IC50 (human PDE4D isozyme): < 5 µM

Nc1nc2c(-c3cccc([N+](=O)[O-])c3)cc(Cn3cccn3)cc2s1 [BA-10, 4-(3-Nitro-phenyl)-6-pyrazol-1-ylmethyl-benzothiazol-2-ylamine]
IC50 (human PDE4B isozyme): < 5 µM
IC50 (human PDE4D isozyme): < 5 µM

Nc1nc2c(-c3ccc4c(c3)OCO4)nc(Cc3ccc(F)cc3)nc2s1 [BA-11, 7-Benzo[1,3]dioxol-5-yl-5-(4-fluorobenzyl)-thiazolo[5,4-d]pyrimidin-2-ylamine]
IC50 (human PDE4B isozyme): < 5 µM
IC50 (human PDE4D isozyme): < 5 µM

CC(=O)c1cccc(-c2cc(Cn3cccn3)cc3sc(N)nc23)c1 [BA-12, 1-[3-(2-Amino-6-pyrazol-1-ylmethyl-benzothiazol-4-yl)-phenyl]-ethanone]
IC50 (human PDE4B isozyme): < 5 µM
IC50 (human PDE4D isozyme): < 5 µM

Nc1nc2c(-c3cccc(Br)c3)cc(Cc3ccc(F)cc3)cc2s1 [BA-13, 4-(3-bromophenyl)-6-(4-fluorobenzyl)-1,3-benzothiazol-2-amine]
IC50 (human PDE4B isozyme): < 5 µM
IC50 (human PDE4D isozyme): < 5 µM

CSc1cccc(-c2cc(Cn3cccn3)cc3sc(N)nc23)c1 [BA-14, 4-(3-Methylsulfanyl-phenyl)-6-pyrazol-1-ylmethyl-benzothiazol-2-ylamine]
IC50 (human PDE4B isozyme): < 5 µM
IC50 (human PDE4D isozyme): < 5 µM

Nc1ccc(Cc2cc3sc(N)nc3c(-c3cccc([N+](=O)[O-])c3)c2O)cc1 [BA-15, 2-Amino-6-(4-amino-benzyl)-4-(3-nitro-phenyl)-benzothiazol-5-ol]
IC50 (human PDE4B isozyme): < 5 µM
IC50 (human PDE4D isozyme): < 5 µM

Nc1ccc(Cc2cc3sc(N)nc3c(-c3cccc(Cl)c3)c2F)cc1 [BA-16, 6-(4-amino-benzyl)-4-(3-chloro-phenyl)-5-fluoro-benzothiazol-2-ylamine]
IC50 (human PDE4B isozyme): < 5 µM
IC50 (human PDE4D isozyme): < 5 µM

CS(=O)(=O)Nc1ccc(Cc2cc(-c3cccc(Cl)c3)c3nc(N)sc3c2)cc1 [BA-18, N-{4-[2-Amino-4-(3-chloro-phenyl)-benzothiazol-6-ylmethyl]-phenyl}-methanesulfonamide]
IC50 (human PDE4B isozyme): 5 to 20 µM
IC50 (human PDE4D isozyme): < 5 µM

CS(=O)(=O)Nc1ccc(Cc2cc3sc(N)nc3c(-c3cccc(Cl)c3)c2F)cc1 [BA-19, N-{4-[2-amino-4-(3-chloro-phenyl)-5-fluoro-benzothiazol-6-ylmethyl]-phenyl}-methanesulfonamide]
IC50 (human PDE4B isozyme): 5 to 20 µM
IC50 (human PDE4D isozyme): < 5 µM

CS(=O)(=O)Nc1ccc(Cc2cc(-c3cccc(Cl)c3)c3nc(N)oc3c2)cc1 [BA-20, N-{4-[2-Amino-4-(3-chloro-phenyl)-benzooxazol-6-ylmethyl]-phenyl}-methanesulfonamide]
IC50 (human PDE4B isozyme): < 5 µM
IC50 (human PDE4D isozyme): < 5 µM

NC(=O)Nc1ccc(Cc2cc3sc(N)nc3c(-c3cccc(Cl)c3)c2F)cc1 [BA-21, {4-[2-amino-4-(3-chloro-phenyl)-5-fluoro-benzothiazol-6-ylmethyl]-phenyl}-urea]
IC50 (human PDE4B isozyme): < 5 µM
IC50 (human PDE4D isozyme): < 5 µM

Cc1nc2c(-c3cccc(Cl)c3)cc(Cc3ccc(N)cc3)cc2o1 [BA-22, 4-{[4-(3-chlorophenyl)-2-methyl-1,3-benzoxazol-6-yl]methyl}aniline]
IC50 (human PDE4B isozyme): < 5 µM
IC50 (human PDE4D isozyme): < 5 µM

Nc1ccc(Cc2cc3scnc3c(-c3cccc(Cl)c3)c2F)cc1 [BA-23, 4-[4-(3-chloro-phenyl)-5-fluoro-benzothiazol-6-ylmethyl]-phenylamine]
IC50 (human PDE4B isozyme): < 5 µM
IC50 (human PDE4D isozyme): < 5 µM

Cc1nc2c(-c3cccc(Cl)c3)cc(Cc3ccc(NC(N)=O)cc3)cc2o1 [BA-24, N-(4-{[4-(3-chlorophenyl)-2-methyl-1,3-benzoxazol-6-yl]methyl}phenyl)urea]
IC50 (human PDE4B isozyme): < 5 µM
IC50 (human PDE4D isozyme): < 5 µM

Nc1ccc(Cc2cc(-c3cccc(Cl)c3)c3ncsc3c2)cc1 [BA-25, 4-[4-(3-Chloro-phenyl)-benzothiazol-6-ylmethyl]-phenylamine]
IC50 (human PDE4B isozyme): < 5 µM
IC50 (human PDE4D isozyme): < 5 µM

Nc1ccc(Cc2cc(-c3cccc(Cl)c3)c3nc(N)sc3c2)cc1 [BA-26, 6-(4-Amino-benzyl)-4-(3-chloro-phenyl)-benzothiazol-2-ylamine]
IC50 (human PDE4B isozyme): < 5 µM
IC50 (human PDE4D isozyme): < 5 µM

NC(=O)Nc1ccc(Cc2cc(-c3cccc(Cl)c3)c3nc(N)sc3c2)cc1 [BA-27, {4-[2-Amino-4-(3-chloro-phenyl)-benzothiazol-6-ylmethyl]-phenyl}-urea]
IC50 (human PDE4B isozyme): < 5 µM
IC50 (human PDE4D isozyme): < 5 µM

NC(=O)Nc1ccc(Cc2cc(-c3cccc(Cl)c3)c3ncsc3c2)cc1 [BA-28, {4-[4-(3-Chloro-phenyl)-benzothiazol-6-ylmethyl]-phenyl}-urea]
IC50 (human PDE4B isozyme): < 5 µM
IC50 (human PDE4D isozyme): < 5 µM

CCNC(=O)Nc1ccc(Cc2cc3sc(N)nc3c(-c3cccc(Cl)c3)c2F)cc1 [BA-29, 1-{4-[2-Amino-4-(3-chloro-phenyl)-5-fluoro-benzothiazol-6-ylmethyl]-phenyl}-3-ethyl-urea]
IC50 (human PDE4B isozyme): < 5 µM
IC50 (human PDE4D isozyme): < 5 µM

CCNC(=O)Nc1ccc(Cc2cc3scnc3c(-c3cccc(Cl)c3)c2F)cc1 [BA-30, 1-{4-[4-(3-chloro-phenyl)-5-fluoro-benzothiazol-6-ylmethyl]-phenyl}-3-ethyl-urea]
IC50 (human PDE4B isozyme): < 5 µM
IC50 (human PDE4D isozyme): < 5 µM

NC(=O)N1CCN(Cc2cc3scnc3c(-c3cccc(Cl)c3)c2F)CC1 [BA-31, 4-[4-(3-Chloro-phenyl)-5-fluoro-benzothiazol-6-ylmethyl]-piperazine-1-carboxylic acid amide]
IC50 (human PDE4B isozyme): < 5 µM
IC50 (human PDE4D isozyme): < 5 µM

Nc1ccc(Cc2cc(-c3cccc(Cl)c3)c3nc(N)oc3c2)cc1 [BA-32, 6-(4-aminobenzyl)-4-(3-chlorophenyl)-1,3-benzoxazol-2-amine]
IC50 (human PDE4B isozyme): < 5 µM
IC50 (human PDE4D isozyme): < 5 µM

CCNC(=O)Nc1ccc(Cc2cc3scnc3c(-c3cccc(Cl)c3)c2F)cn1 [BA-33, 1-[5-[4-(3-chloro-phenyl)-5-fluoro-benzothiazol-6-ylmethyl]-pyridin-2-yl]-3-ethyl-urea]
IC50 (human PDE4B isozyme): < 5 µM
IC50 (human PDE4D isozyme): < 5 µM

COc1ccc(Cc2cc3scnc3c(-c3cccc(Cl)c3)c2F)cn1 [BA-38, 4-(3-chloro-phenyl)-5-fluoro-6-(6-methoxy-pyridin-3-ylmethyl)-benzothiazole]
IC50 (human PDE4B isozyme): < 5 µM
IC50 (human PDE4D isozyme): < 5 µM

CN1CCN(Cc2cc3scnc3c(-c3cccc(Cl)c3)c2F)CC1 [BA-50, 4-(3-Chloro-phenyl)-5-fluoro-6-(4-methyl-piperazin-1-ylmethyl)-benzothiazole]
IC50 (human PDE4D isozyme): < 5 µM

Fc1c(Cc2ccc(N3CCCC3)nc2)cc2scnc2c1-c1cccc(Cl)c1 [BA-57, 4-(3-chloro-phenyl)-5-fluoro-6-(6-pyrrolidin-1-yl-pyridin-3-ylmethyl)-benzothiazole]
IC50 (human PDE4D isozyme): < 5 µM

Cc1nc2c(-c3cccc(Cl)c3)cc(Cc3ccc(N)nc3)cc2s1 [BA-66, 5-[4-(3-chloro-phenyl)-2-methyl-benzothiazol-6-ylmethyl]-pyridin-2-ylamine]
IC50 (human PDE4D isozyme): < 5 µM
